Source: the supplement of paper PMC4932681

What was measured:
[1] = tested on: ZR-75-1 Tam1; experiment: drug sensitivity score (DSS) (DSS (dimensionless)); higher = more sensitive; extreme values may be limits of the assay; settings: 4-OH-tamoxifen in medium 1 µM; 72 h
Method: (§1)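 FIMM FO2B library drugs were tested at 5 concentrations (10,000-fold range) for 72 h, with CellTiter-Glo viability normalised to DMSO and benzethonium chloride controls. The Drug Sensitivity Score (DSS) is computed from the fitted logistic dose-response curve (area-based; 0 = inactive). Resistant lines and the 'in 1µM tamoxifen' arms were tested in 1 µM 4-OH-tamoxifen.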

[2] = tested on: ZR-75-1; experiment: as above; settings: 72 h
Method: as §1

[3] = tested on: T-47D Tam2; experiment: as above; settings: 4-OH-tamoxifen in medium 1 µM; 72 h
Method: as §1

[4] = tested on: MCF-7; experiment: as above; settings: 72 h
Method: as §1

[5] = tested on: BT-474 Tam2; experiment: as above; settings: 4-OH-tamoxifen in medium 1 µM; 72 h
Method: as §1

[6] = tested on: BT-474 Tam1; experiment: as above; settings: 4-OH-tamoxifen in medium 1 µM; 72 h
Method: as §1

[7] = tested on: T-47D; experiment: as above; settings: 72 h
Method: as §1

[8] = tested on: MCF-7 Tam1; experiment: as above; settings: 4-OH-tamoxifen in medium 1 µM; 72 h
Method: as §1

[9] = tested on: ZR-75-1 Tam2; experiment: as above; settings: 4-OH-tamoxifen in medium 1 µM; 72 h
Method: as §1

[10] = tested on: T-47D Tam1; experiment: as above; settings: 4-OH-tamoxifen in medium 1 µM; 72 h
Method: as §1

[11] = tested on: BT-474; experiment: as above; settings: 72 h
Method: as §1

[12] = tested on: MCF-7; experiment: relative IC50 (midpoint of fitted logistic curve, plateau may be below 50% inhibition; CellTiter-Glo viability); higher = less potent; settings: 72 h
Method: (§2)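 FIMM FO2B library drugs were plated at 5 concentrations spanning a 10,000-fold range in 384-well plates. Cells were incubated for 72 h at 37 °C and viability was read by CellTiter-Glo, normalised to DMSO (0% inhibition) and 100 µM benzethonium chloride (100% inhibition). IC50 values come from logistic dose-response fits (Breeze pipeline). Tamoxifen-resistant lines and the 'in 1µM tamoxifen' parental arms were tested in medium with 1 µM 4-OH-tamoxifen.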

[13] = tested on: BT-474 Tam2; experiment: as above; settings: 4-OH-tamoxifen in medium 1 µM; 72 h
Method: as §2

[14] = tested on: BT-474 Tam1; experiment: as above; settings: 4-OH-tamoxifen in medium 1 µM; 72 h
Method: as §2

[15] = tested on: T-47D; experiment: as above; settings: 72 h
Method: as §2

[16] = tested on: MCF-7 Tam1; experiment: as above; settings: 4-OH-tamoxifen in medium 1 µM; 72 h
Method: as §2

[17] = tested on: BT-474; experiment: as above; settings: 72 h
Method: as §2

[18] = tested on: ZR-75-1 Tam1; experiment: as above; settings: 4-OH-tamoxifen in medium 1 µM; 72 h
Method: as §2

[19] = tested on: ZR-75-1; experiment: as above; settings: 72 h
Method: as §2

[20] = tested on: ZR-75-1 Tam2; experiment: as above; settings: 4-OH-tamoxifen in medium 1 µM; 72 h
Method: as §2

[21] = tested on: T-47D Tam1; experiment: as above; settings: 4-OH-tamoxifen in medium 1 µM; 72 h
Method: as §2

| Compound | drug sensitivity score [1] | drug sensitivity score ([2]; 4-OH-tamoxifen in medium 0 µM) | drug sensitivity score ([2]; 4-OH-tamoxifen in medium 1 µM) | drug sensitivity score [3] | drug sensitivity score ([4]; 4-OH-tamoxifen in medium 0 µM) | drug sensitivity score ([4]; 4-OH-tamoxifen in medium 1 µM) | drug sensitivity score [5] | drug sensitivity score [6] | drug sensitivity score ([7]; 4-OH-tamoxifen in medium 0 µM) | drug sensitivity score ([7]; 4-OH-tamoxifen in medium 1 µM) | drug sensitivity score [8] | drug sensitivity score [9] | drug sensitivity score [10] | drug sensitivity score ([11]; 4-OH-tamoxifen in medium 0 µM) | drug sensitivity score ([11]; 4-OH-tamoxifen in medium 1 µM) | relative IC50 ([12]; 4-OH-tamoxifen in medium 0 µM) [nM] | relative IC50 ([12]; 4-OH-tamoxifen in medium 1 µM) [nM] | relative IC50 [13] [nM] | relative IC50 [14] [µM] | relative IC50 ([15]; 4-OH-tamoxifen in medium 0 µM) [µM] | relative IC50 ([15]; 4-OH-tamoxifen in medium 1 µM) [µM] | relative IC50 [16] [µM] | relative IC50 ([17]; 4-OH-tamoxifen in medium 0 µM) [nM] | relative IC50 ([17]; 4-OH-tamoxifen in medium 1 µM) [nM] | relative IC50 [18] [nM] | relative IC50 ([19]; 4-OH-tamoxifen in medium 0 µM) [µM] | relative IC50 ([19]; 4-OH-tamoxifen in medium 1 µM) [µM] | relative IC50 [20] [nM] | relative IC50 [21] [nM] |
| --- | --- | --- | --- | --- | --- | --- | --- | --- | --- | --- | --- | --- | --- | --- | --- | --- | --- | --- | --- | --- | --- | --- | --- | --- | --- | --- | --- | --- | --- |
| Nc1nc(Cl)nc2c1ncn2[C@H]1C[C@H](O)[C@@H](CO)O1 [Cladribine] | 0.538 | 0.0944 | 0.126 | 0 | 0 | 0 | 0 | 0 | 0 | 0 | 0 | 1.16 | 0.899 | 0 | 0 | > 1000 | > 1000 | > 1000 | > 1 | > 1 | > 1 | > 1 | > 1000 | > 1000 |  |  |  |  |  |
| Cn1cnc2c(F)c(Nc3ccc(Br)cc3Cl)c(C(=O)NOCCO)cc21 [Selumetinib  (AZD6244)] | 0 | 0 | 0 | 0.0086 | 0.0626 | 1.86 | 0 | 0.393 | 0 | 0 | 0.168 | 0 | 8.55 | 0 | 2.57 |  |  | > 10000 |  | > 10 | > 10 |  | > 10000 |  | > 10000 | > 10 | > 10 | > 10000 | 975 |
| CO[C@@H]1[C@H](N(C)C(=O)c2ccccc2)C[C@H]2O[C@]1(C)n1c3ccccc3c3c4c(c5c6ccccc6n2c5c31)C(=O)NC4 [Midostaurin (PKC412)] | 0 | 0 | 0 | 1.85 | 0.329 | 0.519 | 1.88 | 0.189 | 1.37 | 3.14 | 1.28 | 0 | 3.03 | 3.45 | 7.09 |  |  |  |  |  | 1.81 |  |  | 305 | > 10000 | > 10 | > 10 | > 10000 | 1490 |
| Cc1c(C(=O)Nc2ccc(N3C[C@@H](C)O[C@@H](C)C3)nc2)cccc1-c1ccc(OC(F)(F)F)cc1 [Erismodegib (NVP-LDE225)] | 0.271 | 0 | 0.747 | 1.05 | 0.927 | 0.267 | 1.6 | 0.226 | 0.587 | 0 | 0.695 | 0 | 0 | 0.627 | 1.78 |  |  |  |  |  | > 10 |  |  | 3610 |  | > 10 |  | > 10000 | > 10000 |
| CO[C@H]1C[C@@H]2CC[C@@H](C)[C@@](O)(O2)C(=O)C(=O)N2CCCC[C@H]2C(=O)O[C@H]([C@H](C)C[C@@H]2CC[C@@H](OP(C)(C)=O)[C@H](OC)C2)CC(=O)[C@H](C)/C=C(\C)[C@@H](O)[C@@H](OC)C(=O)[C@H](C)C[C@H](C)/C=C/C=C/C=C/1C [Ridaforolimus] | 5.15 | 8.67 | 4.9 | 2.97 | 12.2 | 5.81 | 2.86 | 2 | 4.69 | 1.51 | 0.718 | 10.1 | 5.75 | 6.16 | 0 | 1.03 | 3.28 |  |  | 0.00563 |  |  |  | > 100 | 3.27 | 0.00123 | 0.00176 | 1 | 2.06 |
| CO[C@H]1C[C@@H]2CC[C@@H](C)[C@@](O)(O2)C(=O)C(=O)N2CCCC[C@H]2C(=O)O[C@H]([C@H](C)C[C@@H]2CC[C@@H](OC(=O)C(C)(CO)CO)[C@H](OC)C2)CC(=O)[C@H](C)/C=C(\C)[C@@H](O)[C@@H](OC)C(=O)[C@H](C)C[C@H](C)/C=C/C=C/C=C/1C [Temsirolimus] | 4.48 | 8.12 | 4.72 | 2.09 | 10.3 | 6.12 | 0.262 | 1.35 | 3.79 | 0.468 | 0.189 | 8.51 | 5.45 | 0.668 | 0 | 0.493 | 2 |  |  |  |  |  |  | > 100 | 2.67 | 0.000917 |  | 1.08 | 2.04 |
| Nc1ccccc1NC(=O)c1ccc(CNC(=O)OCc2cccnc2)cc1 [Entinostat] | 1.06 | 1.19 | 0 | 0.0349 | 3.59 | 1.94 | 3.18 | 3.73 | 2.94 | 1.33 | 0 | 0.992 | 5.11 | 3.08 | 4.39 | 2990 | 3280 | 2810 | 3.73 | 3.89 | 3.99 |  | 3440 | 3390 |  | 3.96 |  |  | 1820 |
| O=C(Nc1ccncc1)C(=O)c1cn(Cc2ccc(Cl)cc2)c2ccccc12 [Indibulin] | 0.0575 | 0.997 | 0 | 0.194 | 8.82 | 6.28 | 3.18 | 0 | 0 | 0.395 | 0 | 0.106 | 3.37 | 0.543 | 4.58 | 32 | 189 |  | > 10 | > 10 |  | > 10 |  | 474 |  |  | > 10 |  |  |
